Bridge positions count the residues as written; N and C are the ends. Ends that are not written are not given here.
Tests used:
[1] = cited from earlier work
Description: (§1) TNBC is the most aggressive form of breast cancer. There are different TNBC subtypes characterized by intratumor heterogeneity based on morphology, gene expression profile, and response to adjuvant chemotherapies. Unfortunately, TNBC is still lacking effective anticancer targets for clinical treatment. This justifies the urgency to explore new biomarkers and therapeutic strategies for improving the survival outcomes of TNBC patients. EGFR is a tyrosine kinase membrane receptor that contains in the extracellular region the docking site for the epidermal growth factor a ...

MDA-MB-231 cells = conditions: cited from earlier work
Description: as §1

MDA-MB-468 cells = conditions: cited from earlier work
Description: as §1

BT549 cells = assay: Cell cycle analysis by propidium iodide flow cytometry; type: cell-based, human; conditions: 24 h; for cells in G1 phase / cells in G2 phase / cells in S phase: free peptide 25 μM, after 18 h serum starvation, 0.2% FBS, PI staining, two experiments; for mitogenic activity through the binding to the EGFR: 25 μM, BT549
Experimental: BT549 cells (200,000 cells/well) were seeded onto a 6-well plate in RPMI-1640 complete medium. After adhesion, cells were starved in serum-free RPMI-1640 for 18 h, and then the medium was changed to RPMI-1640 supplemented with 0.2% FBS in the presence or absence of control, 01cys_EGFR and 06_cys EGFR peptides (25 μM). After 24 h of peptide stimulation, cells were trypsinized, washed, and suspended in PBS. Cells were fixed with 1 mL of ice-cold 70% ethanol and incubated for 30 min at 4 °C. Fixed cells were washed three times and stained with 50 μg/mL of propidium iodide and 40 μg/mL of RNAse A. Cell cycle profile was acquired by FACS Canto II and analyzed by Flow Jo software 8.8.6 (Becton Dickinson).
Next, we tested whether the peptides 01cys_EGFR and 06cys_EGFR could affect the cell cycle through the binding to EGFR. To this end, BT549 cells were serum starved for 18h to induce synchronization and then treated with 01cys_EGFR, 06cys_EGFR, and the irrelevant control peptides (25 μM) or left untreated for 24 h. Proliferating cells were stained with propidium iodide to analyze cell cycle distribution by flow cytometry (Figure 7A). The cells treated with 01cys_EGFR, 06cys_EGFR, and control peptides were distributed ~26% in G1, ~64% in S, and ~10% in the G2 phase, which was a similar behavior to unstimulated cells (Figure 7B).
Figure 7 (A) The proportion of BT549 cells untreated or treated with 25 μM of control, 01cys_EGFR, and 06cys_EGFR peptides in G1, S, and G2 phases were determined by flow cytometry and quantified by Flow Jo software using Watson Pragmatic method. […] Data are collected from two different experiments and presented as means ± SD. Paired t-test indicates no statistical significance between peptide-stimulated and unstimulated cells.

[2] = test system: MDA-MB-231 xenograft tissue; assay: Confocal immunofluorescence of tumor xenograft tissue sections with FITC-peptides; design: species or system human; conditions: MDA-MB-231 xenograft tissue sections, FITC-peptide 10 μg/mL, 45 min, 37 °C; confocal microscopy
Experimental: (§2) OCT-embedded MDA-MB-231 xenograft tissue samples derived from Balb/c nude mice were cut in 8–10 µm sections and mounted onto microscope slides for confocal microscopy analysis. Sections were fixed with 4% paraformaldehyde for 30 min at 4 °C, and then for 45 min, incubated at 4 °C with rabbit polyclonal anti-EGFR (1:100 dilution -Bethyl Laboratories, Inc., Montgomery, TX, USA) followed by Alexa Fluor 568-labeled anti-rabbit secondary antibody (1:500 dilution; Thermo Fisher Scientific). After washing, cells were incubated in the dark with FITC-conjugated peptides (Control, 01_cysEGFR, 06_cysEGFR) (10 μg/mL) for 45 min at 37 °C, anti-Wheat Germ Agglutinin (WGA) Alexa Fluor 647 conjugate (1:200 dilution; Thermo Fisher Scientific) for 45 min, and finally with DAPI at the dilution 1:500 for 10 min. Cells were prepared with mounting medium (ProLong antifade, Thermo Fisher Scientific) and visualized by confocal microscopy (LEICA TCS SP8).
Then, we asked whether the 01_cysEGFR and 06_cysEGFR peptides could be used for in vivo analysis of tumor tissues expressing EGFR. To this end, we generated MDA-MB-231 tumor xenograft in mice and performed confocal microscopy analysis of tumor tissue sections upon immunofluorescence staining with FITC-peptides (green signal) or anti-EGFR (red signal) (Figure 6). […]

[3] = test system: wild-type MDA-MB-231 cells; assay: Flow cytometry binding of FITC-conjugated phages; type: cell-based, human; conditions: phage displaying the peptide; compared to 04cys_EGFR and 30cys_EGFR phages
Description: Phages expressing peptide sequences (01cys_EGFR, 04cys_EGFR, 06cys_EGFR, and 30cys_EGFR) and a wild-type M13 phage were conjugated to fluorescein isothiocyanate (FITC) in order to analyze their binding affinity to EGFR on MDA-MB-231 by flow cytometry. The “Pierce FITC Antibody Labeling Kit” (cat #53027—Thermo Fisher Scientific) was used for the conjugation following the manufacturer’s instructions.
(§3) We analyzed the binding of FITC-conjugated phages on MDA-MB231 cells by flow cytometry. A binding assay was also performed with FITC-conjugated peptides to human MDA-MB-231 and BT-549 cells, murine 4T1 cells, and additional EGFR-positive thyroid cancer cell lines K1 and Cal62. To increase the stringency conditions of in vitro binding, adherent cells were incubated with 10 μg/mL of 01cys_EGFR and 06_cys EGFR for 45 min in the dark at 37 °C instead of 4 °C of the standard protocol. Cells were recovered by a cell scraper, then twice washed with PBS and suspended in 300 μL of BD™ FACSFlow™ fluid. Data were acquired on the BD FACSCanto™ II and analyzed with FlowJo software (Becton Dickinson, San Jose, CA, USA).
The binding ability of phages 01cys_EGFR, 04cys_EGFR, 06cys_EGFR, and 30cys_EGFR to the MDA-MB-231 cells were analyzed by flow cytometry. To this end, the phages were conjugated with fluorescein isothiocyanate (FITC) and incubated with wild-type MDA-MB-231 or MDA-MB-231 EGFR- KO cells. […]

[4] = test system: thyroid cancer cell lines (Cal62 and K1); assay: Flow cytometry binding of FITC-peptides to EGFR-positive thyroid cancer cells; type: cell-based, human; conditions: Cal62 and K1, especially K1; 10uM FITC-peptide, 45 min; compared with 06cys_EGFR
Experimental: as §3
In order to evaluate the binding efficacy of our peptides in other EGFR-overexpressing cancer cell types, we choose two different thyroid cancer cell lines (Cal62 and K1).
Figure S3. Pe p t i d e binding assay in EGFR-positive thyroid cancer cells using ﬂow cytometry. Flow cytometric analysis showing EGFR-overexpressing thyroid cancer cell lines K1 and Cal62 unstained or stained with 10uM of FITC- conjugate peptides (control, 01_cysEGFR and 06cys_EGFR) for 45 […]

[5] = test system: MDA-MB-231 EGFR KO xenograft; assay: Confocal immunofluorescence of tumor xenograft tissue sections with FITC-peptides; design: species or system human; conditions: MDA-MB-231 EGFR KO xenograft sections, FITC-peptide 10 μg/mL, 45 min, 37 °C; confocal microscopy
Experimental: as §2
EGFR was detected in the MDA-MB-231 xenograft tissue sections by an anti-EGFR antibody as a red fluorescence signal, while it was undetected in MDA-MB-231 EGFR KO (Figure 6).

Q: Which serum stability [1] does the source give for YHWYGYTPENVI [peptide 22] here?
A: low serum stability

Q: And the uptake (MDA-MB-231 cells)?
A: highest uptake

Q: And the uptake (MDA-MB-468 cells)?
A: highest uptake

Q: Which results are given for “CGGNGPGLC (disulfide 1-9 (inferred)) [irrelevant peptide, Irrelevant peptide synthesized as a negative control, reference compound]”?
A: cells in G1 phase (BT549 cells): ~ 26%; cells in G2 phase (BT549 cells): ~ 10%; cells in S phase (BT549 cells): ~ 64%; green fluorescence signal (FITC-peptide staining) [2]: lack of green fluorescence signal

Q: For “CPSDEHHTC (disulfide 1-9 (inferred)) [06cys_EGFR, Phage-display selected cyclic EGFR peptide ligand, one disulphide bond, amidated C-terminus]”, which “mitogenic activity through the binding to the EGFR” value (BT549 cells) is on record?
A: lacked mitogenic activity

Q: What about the “cells in G1 phase” value (BT549 cells) of the same sequence?
A: ~ 26%

Q: What about the “cells in G2 phase” value (BT549 cells) of the same sequence?
A: ~ 10%

Q: And the “cells in S phase” value (BT549 cells)?
A: ~ 64%

Q: What about the “binding of FITC-conjugated phage (percentage of fluorescence)” value [3] of the same sequence?
A: higher efficiency

Q: Which “mitogenic activity through the binding to the EGFR” value (BT549 cells) does the source give for “CEKMVATHC (disulfide 1-9 (inferred)) [01cys_EGFR, Phage-display selected cyclic EGFR peptide ligand, one disulphide bond, amidated C-terminus]” here?
A: lacked mitogenic activity

Q: And the “cells in G1 phase” value (BT549 cells)?
A: ~ 26%

Q: What about the “cells in G2 phase” value (BT549 cells) of the same sequence?
A: ~ 10%

Q: What about the “cells in S phase” value (BT549 cells) of the same sequence?
A: ~ 64%

Q: And the “efficacy of binding to thyroid cancer cells” value [4]?
A: higher efficacy of binding

Q: What about the “green fluorescence signal (FITC-peptide staining)” value [2] of the same sequence?
A: stronger green fluorescence signal

Q: What about the “green fluorescence signal (FITC-peptide staining)” value [5] of the same sequence?
A: lack of fluorescence

Q: What about the “binding of FITC-conjugated phage (percentage of fluorescence)” value [3] of the same sequence?
A: higher efficiency

Source: publication PMC10093212, “Development of Cyclic Peptides Targeting the Epidermal Growth Factor Receptor in Mesenchymal Triple-Negative Breast Cancer Subtype” (Cells, 2023)
